The values that follow come from PMC6264262, “Synthesis and Antimalarial Activity of Novel Dihydro-Artemisinin Derivatives” (Molecules, 2011).

The assay concerns the target T1, P. falciparum falcipain-2 (Plasmodium falciparum, UniProt Q8I6U4).
T1 construct: Recombinant falcipain-2 (30 nM) was incubated for 30 min at room temperature
T1 sequence (Q8I6U4 244-484): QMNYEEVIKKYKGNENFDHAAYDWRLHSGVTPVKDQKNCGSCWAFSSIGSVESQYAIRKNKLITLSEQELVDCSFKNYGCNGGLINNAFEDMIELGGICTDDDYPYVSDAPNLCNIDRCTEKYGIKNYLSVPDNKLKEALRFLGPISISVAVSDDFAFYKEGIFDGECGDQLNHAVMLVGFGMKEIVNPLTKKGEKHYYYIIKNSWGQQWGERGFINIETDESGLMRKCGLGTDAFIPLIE
Description: in vitro falcipain-2 inhibition assay (fluorogenic substrate Z-Leu-Arg-AMC). In kind it is biochemical. The settings on record: recombinant falcipain-2 30 nM, pH 5.5, substrate Z-Leu-Arg-AMC 25 μM; for Inhibition rate: at 10 μM concentration level; for IC50: 30 min preincubation, determined if inhibition rate larger than 20% at 10 μM. As to the method:
The in vitro P. falciparum falcipain-2 inhibition assay against was carried out according to a previously reported method by taking N-(L-3-trans-carboxyoxiran-2-carbonyl)-L-leucyl)-amido(4-guanido)butane (E-64) as a positive control and DMSO as a negative control. Falcipain-2 could hydrolyse the fluorogenic substrate benzyloxycarbonyl-Leu-Arg-7-amino-4-methylcoumarin (Z-Leu-Arg-AMC) to produce coumarin and its activity could be evaluated by monitoring the fluorescence of the coumarin.
Recombinant falcipain-2 (30 nM) was incubated for 30 min at room temperature in 100 mM NaOAc, pH 5.5, 10 mM dithiothreitol (DTT), with different concentrations of 10a-l and 12a-f. These solutions were prepared from stock in DMSO (maximum concentration of DMSO in the assay was 1%). After incubation, the substrate Z-Leu-Arg-AMC with the same buffer was added to a final concentration of 25 μM. The increase in fluorescence (excitation at 355 nm and emission at 460 nm) was monitored for 30 min at room temperature with an automated microplate spectrofluorimeter (Biotek, Synergy 2). IC50 values were determined from plots of percent activity over compound concentration using the GraphPad Prism software if inhibition rates were larger than 20% at 10 μM concentration level.

On to `CC1CCC2C(C)[C@@H](Oc3ccc(C=NNC(=O)Nc4ccccc4F)cc3)OC3OC4(C)CCC1C32OO4` (stereo partly drawn) [Compound 10g, 4-[(10S)-Dihydroartemisinin-10-oxy]benzaldehyde N^4-(2-fluorophenyl)semicarbazone], for which the Inhibition rate came to 76.74% and the IC50 (commonly the concentration needed to halve the response being measured) was found to be 2250 nM.
On the same counts, the results for `Cc1cc(C)cc(NC(=S)NN=Cc2ccc(O[C@H]3O[C@@H]4O[C@@]5(C)CC[C@H]6[C@H](C)CC[C@@H]([C@H]3C)[C@@]46OO5)cc2)c1` [Compound 10e, 4-[(10S)-Dihydroartemisinin-10-oxy]benzaldehyde N^4-(3,5-dimethylphenyl)thiosemicarbazone] are 74.06% and 1350 nM.
On the same counts, the results for `Cc1ccc(C)c(NC(=O)NN=Cc2ccc(O[C@H]3OC4OC5(C)CCC6C(C)CCC(C3C)C46OO5)cc2)c1` (stereo partly drawn) [Compound 10j, 4-[(10S)-Dihydroartemisinin-10-oxy]benzaldehyde N^4-(2,5-dimethylphenyl)semicarbazone] are 59.01% and 2280 nM.
On the same counts, the results for `Cc1c(Cl)cccc1NC(=O)NN=Cc1ccc(O[C@H]2OC3OC4(C)CCC5C(C)CCC(C2C)C35OO4)cc1` (stereo partly drawn) [Compound 10l, 4-[(10S)-Dihydroartemisinin-10-oxy]benzaldehyde N^4-(3-chloro-2-methylphenyl)semicarbazone] are 81.82% and 2540 nM.
In the case of `CCOc1ccc(NC(=S)NN=Cc2ccc(O[C@H]3OC4OC5(C)CCC6C(C)CCC(C3C)C46OO5)cc2)cc1` (stereo partly drawn) [Compound 10c, 4-[(10S)-Dihydroartemisinin-10-oxy]benzaldehyde N^4-(4-ethoxyphenyl)thiosemicarbazone], the Inhibition rate is reported as 87.42% and the IC50 is 520 nM.
On the same counts, the results for `CC1CCC2C(C)[C@@H](Oc3ccc(C=NNC(=S)Nc4ccc(F)cc4)cc3)OC3OC4(C)CCC1C32OO4` (stereo partly drawn) [Compound 10b, 4-[(10S)-Dihydroartemisinin-10-oxy]benzaldehyde N^4-(4-fluorophenyl)thiosemicarbazone] are 59.76% and 2170 nM.
On the same counts, the results for `CC(C)C[C@H](NC(=O)[C@H]1O[C@@H]1C(=O)O)C(=O)NCCCCN=C(N)N` (relative stereo) [Compound E-64, reference compound] are 100.0% and 19.7 nM.
On the same counts, the results for `CC1CCC2C(C)[C@H](OC(=O)c3ccc(C=NNC(=O)Nc4ccccc4F)cc3)OC3OC4(C)CCC1C32OO4` (stereo partly drawn) [Compound 12a, 4-[(10S)-Dihydroartemisinin-10-oxycarbonyl]benzaldehyde N^4-(2-fluorophenyl)semicarbazone] are 79.32% and 470 nM.
With `CC1CCC2C(C)[C@@H](Oc3ccc(C=NNC(=S)Nc4ccccc4F)cc3)OC3OC4(C)CCC1C32OO4` (stereo partly drawn) [Compound 10a, 4-[(10S)-Dihydroartemisinin-10-oxy]benzaldehyde N^4-(2-fluorophenyl)thiosemicarbazone], the Inhibition rate turned out to be 72.48% and the IC50 amounted to 2510 nM.
On the same counts, the results for `Cc1c(Cl)cccc1NC(=S)NN=Cc1ccc(O[C@H]2OC3OC4(C)CCC5C(C)CCC(C2C)C35OO4)cc1` (stereo partly drawn) [Compound 10f, 4-[(10S)-Dihydroartemisinin-10-oxy]benzaldehyde N^4-(3-chloro-2-methylphenyl)thiosemicarbazone] are 75.62% and 984 nM.
As to `Cc1ccc(C)c(NC(=S)NN=Cc2ccc(O[C@H]3OC4OC5(C)CCC6C(C)CCC(C3C)C46OO5)cc2)c1` (stereo partly drawn) [Compound 10d, 4-[(10S)-Dihydroartemisinin-10-oxy]benzaldehyde N^4-(2,5-dimethylphenyl)thiosemicarbazone], the Inhibition rate is 75.28% and the IC50 was determined as 550 nM.
On the same counts, the results for `Cc1ccc(C)c(NC(=O)NN=Cc2ccc(C(=O)O[C@@H]3OC4OC5(C)CCC6C(C)CCC(C3C)C46OO5)cc2)c1` (stereo partly drawn) [Compound 12d, 4-[(10S)-Dihydroartemisinin-10-oxycarbonyl]benzaldehyde N^4-(2,5-dimethylphenyl)semicarbazone] are 76.61% and 2960 nM.
For `Cc1cc(C)cc(NC(=O)NN=Cc2ccc(O[C@H]3O[C@@H]4O[C@@]5(C)CC[C@H]6[C@H](C)CC[C@@H]([C@H]3C)[C@@]46OO5)cc2)c1` [Compound 10k, 4-[(10S)-Dihydroartemisinin-10-oxy]benzaldehyde N^4-(3,5-dimethylphenyl)semicarbazone], the Inhibition rate was 87.88% and the IC50 is 1030 nM.
On the same counts, the results for `CC1CCC2C(C)[C@@H](Oc3ccc(C=NNC(=O)Nc4ccc(F)cc4)cc3)OC3OC4(C)CCC1C32OO4` (stereo partly drawn) [Compound 10h, 4-[(10S)-Dihydroartemisinin-10-oxy]benzaldehyde N^4-(4-fluorophenyl)semicarbazone] are 84.60% and 1020 nM.
On the same counts, the results for `Cc1cc(C)cc(NC(=O)NN=Cc2ccc(C(=O)O[C@@H]3O[C@@H]4O[C@@]5(C)CC[C@H]6[C@H](C)CC[C@@H]([C@H]3C)[C@@]46OO5)cc2)c1` [Compound 12e, 4-[(10S)-Dihydroartemisinin-10-oxycarbonyl]benzaldehyde N^4-(3,5-dimethylphenyl)semicarbazone] are 71.62% and 570 nM.
On the same counts, the results for `Cc1c(Cl)cccc1NC(=O)NN=Cc1ccc(C(=O)O[C@@H]2OC3OC4(C)CCC5C(C)CCC(C2C)C35OO4)cc1` (stereo partly drawn) [Compound 12f, 4-[(10S)-Dihydroartemisinin-10-oxycarbonyl]benzaldehyde N^4-(3-chloro-2-methylphenyl)semicarbaz-one] are 74.67% and 10600 nM.
With `CC1CCC2C(C)[C@H](OC(=O)c3ccc(C=NNC(=O)Nc4ccc(F)cc4)cc3)OC3OC4(C)CCC1C32OO4` (stereo partly drawn) [Compound 12b, 4-[(10S)-Dihydroartemisinin-10-oxycarbonyl]benzaldehyde N^4-(4-fluorophenyl)semicarbazone], the Inhibition rate was determined as 69.25% and the 50% inhibitory concentration (IC50) amounted to 650 nM.
On the same counts, the results for `CCOc1ccc(NC(=O)NN=Cc2ccc(O[C@H]3OC4OC5(C)CCC6C(C)CCC(C3C)C46OO5)cc2)cc1` (stereo partly drawn) [Compound 10i, 4-[(10S)-Dihydroartemisinin-10-oxy]benzaldehyde N^4-(4-ethoxyphenyl)semicarbazone] are 72.70% and 700 nM.
Regarding `CCOc1ccc(NC(=O)NN=Cc2ccc(C(=O)O[C@@H]3OC4OC5(C)CCC6C(C)CCC(C3C)C46OO5)cc2)cc1` (stereo partly drawn) [Compound 12c, 4-[(10S)-Dihydroartemisinin-10-oxycarbonyl]benzaldehyde N^4-(4-ethoxyphenyl)semicarbazone], the Inhibition rate is listed as 75.89% and the IC50 came to 290 nM.
